In ChEMBL document CHEMBL1148283 (J Med Chem, 2004):

Columns and labels:
[1] = target: T1, Nitric oxide synthase 1 (Homo sapiens, UniProt P29475)
Description: In vitro inhibition of human neuronal nitric oxide synthase.

[2] = target: T2, Nitric oxide synthase 3 (Homo sapiens) (UniProt P29474); experiment: Percentage inhibition of human endothelial nitric oxide synthase (eNOS) at 100 uM
T2 sequence (whole entry): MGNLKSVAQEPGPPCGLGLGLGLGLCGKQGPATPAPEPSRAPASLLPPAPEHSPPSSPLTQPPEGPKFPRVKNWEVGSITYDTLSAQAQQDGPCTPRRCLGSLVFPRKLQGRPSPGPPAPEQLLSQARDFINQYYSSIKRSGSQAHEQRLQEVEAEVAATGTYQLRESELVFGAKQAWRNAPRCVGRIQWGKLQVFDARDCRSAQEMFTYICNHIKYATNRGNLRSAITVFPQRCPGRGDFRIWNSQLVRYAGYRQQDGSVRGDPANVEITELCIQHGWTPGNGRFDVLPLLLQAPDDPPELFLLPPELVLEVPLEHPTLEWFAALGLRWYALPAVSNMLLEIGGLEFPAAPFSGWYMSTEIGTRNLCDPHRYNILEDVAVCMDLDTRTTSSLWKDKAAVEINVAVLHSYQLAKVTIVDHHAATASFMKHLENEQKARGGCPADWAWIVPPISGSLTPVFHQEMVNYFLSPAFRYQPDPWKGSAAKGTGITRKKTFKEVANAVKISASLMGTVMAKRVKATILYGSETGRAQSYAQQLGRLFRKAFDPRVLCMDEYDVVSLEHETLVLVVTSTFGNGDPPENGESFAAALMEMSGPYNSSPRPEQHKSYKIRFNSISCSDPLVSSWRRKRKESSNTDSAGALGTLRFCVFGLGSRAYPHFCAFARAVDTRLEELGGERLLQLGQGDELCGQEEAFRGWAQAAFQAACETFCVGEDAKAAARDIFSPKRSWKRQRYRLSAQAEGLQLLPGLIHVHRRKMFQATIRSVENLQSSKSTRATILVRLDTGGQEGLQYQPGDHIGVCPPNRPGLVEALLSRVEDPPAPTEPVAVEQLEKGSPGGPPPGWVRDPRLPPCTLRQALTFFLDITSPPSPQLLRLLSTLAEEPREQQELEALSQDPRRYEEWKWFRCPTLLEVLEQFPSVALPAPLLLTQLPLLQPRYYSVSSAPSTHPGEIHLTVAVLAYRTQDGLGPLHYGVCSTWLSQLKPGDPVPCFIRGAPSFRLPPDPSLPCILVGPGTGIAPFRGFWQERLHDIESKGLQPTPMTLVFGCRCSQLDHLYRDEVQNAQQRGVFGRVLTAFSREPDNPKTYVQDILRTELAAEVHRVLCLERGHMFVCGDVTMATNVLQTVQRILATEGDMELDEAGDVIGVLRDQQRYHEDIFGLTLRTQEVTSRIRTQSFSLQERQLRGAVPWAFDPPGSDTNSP

[3] = target: Nitric oxide synthase, inducible (Homo sapiens, UniProt P35228)
[4] = target: T1, Nitric oxide synthase 1; experiment: Percentage inhibition of human neuronal nitric oxide synthase (nNOS) at 100 uM
[5] = target: T3, Nitric oxide synthase 3 (Homo sapiens, UniProt P29474); experiment: In vitro inhibition of human endothelial nitric oxide synthase.
T3 sequence (P29474 whole entry): T2 sequence (whole entry)

Chain of Nitric oxide synthase, inducible (P35228 whole entry): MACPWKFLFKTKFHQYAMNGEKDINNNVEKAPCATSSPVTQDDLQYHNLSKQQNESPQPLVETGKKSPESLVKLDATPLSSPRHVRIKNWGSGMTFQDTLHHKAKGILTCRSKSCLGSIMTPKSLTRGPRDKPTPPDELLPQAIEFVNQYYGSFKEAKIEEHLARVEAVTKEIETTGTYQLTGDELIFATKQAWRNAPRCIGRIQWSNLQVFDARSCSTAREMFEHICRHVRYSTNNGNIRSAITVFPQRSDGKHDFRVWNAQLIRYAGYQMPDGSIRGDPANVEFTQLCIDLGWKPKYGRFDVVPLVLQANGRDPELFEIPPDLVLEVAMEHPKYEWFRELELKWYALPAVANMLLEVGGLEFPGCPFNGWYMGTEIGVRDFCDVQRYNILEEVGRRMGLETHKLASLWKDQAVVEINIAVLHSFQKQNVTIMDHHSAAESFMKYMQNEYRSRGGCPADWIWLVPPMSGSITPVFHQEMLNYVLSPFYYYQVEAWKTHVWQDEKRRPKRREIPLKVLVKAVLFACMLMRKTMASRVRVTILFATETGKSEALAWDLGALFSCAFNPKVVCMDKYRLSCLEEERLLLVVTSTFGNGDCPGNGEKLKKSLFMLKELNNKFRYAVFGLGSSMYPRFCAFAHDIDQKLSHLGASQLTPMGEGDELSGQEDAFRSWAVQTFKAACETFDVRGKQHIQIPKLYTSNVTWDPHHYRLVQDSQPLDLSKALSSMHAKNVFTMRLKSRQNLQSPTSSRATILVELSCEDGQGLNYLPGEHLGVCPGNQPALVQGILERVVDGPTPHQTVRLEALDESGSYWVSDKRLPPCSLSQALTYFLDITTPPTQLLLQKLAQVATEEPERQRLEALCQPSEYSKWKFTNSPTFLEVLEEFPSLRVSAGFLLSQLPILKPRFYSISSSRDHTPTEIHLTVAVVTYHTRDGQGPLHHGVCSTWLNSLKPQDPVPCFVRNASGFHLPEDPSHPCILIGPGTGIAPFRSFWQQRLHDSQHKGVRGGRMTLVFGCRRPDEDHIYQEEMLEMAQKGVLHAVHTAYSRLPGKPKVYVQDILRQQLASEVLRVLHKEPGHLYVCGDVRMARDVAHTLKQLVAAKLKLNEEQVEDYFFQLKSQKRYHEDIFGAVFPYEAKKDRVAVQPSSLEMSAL
T1 sequence (P29475 whole entry): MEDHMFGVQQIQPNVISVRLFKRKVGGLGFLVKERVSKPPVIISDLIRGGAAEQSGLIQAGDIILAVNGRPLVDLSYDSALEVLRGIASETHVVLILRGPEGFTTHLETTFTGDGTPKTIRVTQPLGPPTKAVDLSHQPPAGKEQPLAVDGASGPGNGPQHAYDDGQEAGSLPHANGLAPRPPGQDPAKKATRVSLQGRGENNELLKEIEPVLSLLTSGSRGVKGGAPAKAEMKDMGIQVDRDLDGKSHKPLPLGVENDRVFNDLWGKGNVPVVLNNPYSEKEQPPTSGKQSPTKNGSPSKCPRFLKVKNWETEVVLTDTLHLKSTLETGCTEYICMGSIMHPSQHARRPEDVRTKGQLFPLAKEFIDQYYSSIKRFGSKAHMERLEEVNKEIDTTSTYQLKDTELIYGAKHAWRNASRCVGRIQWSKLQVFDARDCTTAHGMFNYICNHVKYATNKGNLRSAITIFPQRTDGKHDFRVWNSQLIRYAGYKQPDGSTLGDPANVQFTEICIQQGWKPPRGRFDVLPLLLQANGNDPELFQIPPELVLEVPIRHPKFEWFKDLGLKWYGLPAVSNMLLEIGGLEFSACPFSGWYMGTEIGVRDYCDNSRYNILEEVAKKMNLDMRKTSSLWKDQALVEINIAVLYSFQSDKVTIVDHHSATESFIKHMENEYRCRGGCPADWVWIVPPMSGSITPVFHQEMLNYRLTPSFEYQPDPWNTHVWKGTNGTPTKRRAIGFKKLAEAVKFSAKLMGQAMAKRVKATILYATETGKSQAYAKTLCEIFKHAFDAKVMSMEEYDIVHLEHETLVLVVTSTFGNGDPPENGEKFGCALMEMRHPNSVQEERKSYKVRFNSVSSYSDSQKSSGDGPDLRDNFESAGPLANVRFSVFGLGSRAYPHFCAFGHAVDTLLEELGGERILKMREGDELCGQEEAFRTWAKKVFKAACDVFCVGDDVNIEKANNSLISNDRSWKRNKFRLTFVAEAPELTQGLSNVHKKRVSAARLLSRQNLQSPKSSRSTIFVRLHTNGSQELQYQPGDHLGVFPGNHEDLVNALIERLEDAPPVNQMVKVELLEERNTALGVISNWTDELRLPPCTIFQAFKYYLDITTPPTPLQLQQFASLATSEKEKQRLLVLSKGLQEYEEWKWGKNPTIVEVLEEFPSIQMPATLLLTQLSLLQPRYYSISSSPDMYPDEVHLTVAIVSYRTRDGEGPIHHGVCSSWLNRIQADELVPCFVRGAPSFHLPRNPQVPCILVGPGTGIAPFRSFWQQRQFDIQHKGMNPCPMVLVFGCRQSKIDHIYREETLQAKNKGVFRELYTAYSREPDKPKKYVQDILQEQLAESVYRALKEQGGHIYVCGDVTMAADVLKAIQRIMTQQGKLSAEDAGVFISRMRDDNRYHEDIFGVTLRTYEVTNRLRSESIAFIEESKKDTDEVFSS

`CCOC(=O)N1CCC(Nc2ccccn2)CC1` was tested, and the IC50 [1] was over 100 µM, the inhibition [2] was under 20% and the IC50 [3] was 13 µM. For the same compound, the inhibition [4] was under 20% and the IC50 [5] was over 100 µM.
`COc1ccnc(NC2CCN(C(=O)c3ccc(C#N)cc3)CC2)c1` showed an inhibition [2] of under 20%.
`COc1ccnc(NC2CCN(C(=O)c3ccc(Cl)cc3)CC2)c1` showed an IC50 [1] of 7.8 µM, an IC50 [3] of 0.053 µM and an IC50 [5] of 36 µM.
`CC(=N)NCCSCC[C@H](N)C(=O)O` [GW-274150] gave an IC50 [1] of 18 µM, an IC50 [3] of 0.07 µM and an IC50 [5] of 34 µM.
`COc1ccnc(N)c1` gave an IC50 [1] of 1 µM, an IC50 [3] of 1 µM and an IC50 [5] of 1 µM.
`CC(=N)NCCCC[C@H](N)C(=O)O` [L-NIL] gave an IC50 [1] of 1.6 µM.
For `CNc1cc(C)cc(C)n1`, the IC50 [1] was over 100 µM, the IC50 [3] was 86 µM and the inhibition [4] was under 20%. The IC50 [5] was 30 µM.
`CCc1ccnc(N)c1` was tested, and the IC50 [1] was 2.2 µM.
`N#Cc1ccc(C(=O)N2CCC3(CC2)N=C(N)c2c(F)ccc(F)c2N3)cn1` was tested, and the inhibition [2] was under 20%.
With `CCOC(=O)N1CCC(Nc2cc(OCC)ccn2)CC1` the IC50 [1] was 96 µM, the inhibition [2] was under 20% and the IC50 [3] was 3.8 µM. It also gave an IC50 [5] of over 100 µM.
Work on `COc1ccnc(NC2CCN(C(=O)c3ccccc3)CC2)c1` yielded an IC50 [1] of 28 µM, an IC50 [3] of 0.53 µM and an IC50 [5] of 100 µM.
Work on `Cc1cc(C)nc(N)c1` yielded an IC50 [1] of 0.098 µM, an IC50 [3] of 0.045 µM and an IC50 [5] of 0.17 µM.
`CCCC1CCCCCC(N)=N1` (stereo not given) showed an IC50 [1] of 0.24 µM, an IC50 [3] of 0.026 µM and an IC50 [5] of 4.8 µM.
